# Data from publication PMC9886266, “New [1,2,4]triazolo[4,3-c]quinazolines as intercalative Topo II inhibitors: Design, synthesis, biological evaluation, and in silico studies” (PLOS ONE, 2023).
# Tests used:
# [1] = molecular target: T1, Topoisomerase II (Topo II) (Homo sapiens, UniProt P11388); assay: In vitro Topo II inhibitory assay (TopoGEN Topo II drug screening kit); format: biochemical
# T1 construct: purchased TopoGEN, Inc., Columbus
# Description: The reported method described by Patra et al was applied using Topo II drug screening kit (TopoGEN, Inc., Columbus).
# A typical enzyme reaction was structured to determine Topo II activity. The reaction mixture included Topo II (2 μl), substrate super coiled pHot1 DNA (0.25 μg), 50 μg/ml test compound (2 μl), and assay buffer (4 μl). To start the reaction, the mixture was allowed to incubate in 37°C for 30 min. To terminate the reaction, a mixture of 10% sodium dodecylsulphate (2 μl) and proteinase K (50 μg/mL) was added at 37°C for 15 min. then incubated for 15 min at 37°C.
# (§1) After that, the DNA was run on 1% agarose gel in BioRad gel electrophoresis system for 1–2 h followed by staining with GelRedTM stain for 2 h and destained for 15 min with TAE buffer. The gel was imaged via BioRad’s Gel DocTMEZ system. Both supercoiled and linear strands DNA were incorporated in the gel as markers for DNA-Topo II intercalators. The results of IC50 values were calculated using the GraphPad Prism version 7. Each reaction was performed in duplicate, and at least three independent determinations of each IC50 were made. […]
# S2.2. Measurement of topoisomerase II Activity […]
# analyzed for their Topo II inhibitory activities. The reported method described by Patra et al was applied using Topo II drug screening kit (TopoGEN, Inc., Columbus).
# A typical enzyme reaction was structured to determine Topo II activity. The reaction mixture included Topo II (2 µl), substrate super coiled pHot1 DNA (0.25 µg), 50 µg/ml test compound (2 µl), and assay buffer (4 µl). To start the reaction, the mixture was allowed to incubate in 37 °C for 30 min. To terminate the reaction, a mixture of 10% sodium dodecylsulphate (2 µl) and proteinase K (50 µg/mL) was added at 37 °C for 15 min. then incubated for 15 min at 37 °C.
# as §1
# Vero cells = assay: In vitro cytotoxicity against normal cell line; format: cell-based
# Source text: Although Vero cell are not human cell, it was reported that Vero cells can be used as normal cells to validate the toxicity of the synthesized compounds [43].
# BAX = assay: Western blot, BAX level; format: cell-based, human; conditions: HCT-116, 2.44 μM, 48 h; control = 1.00
# Description: In comparison to the control, compound 16 elevated the level of the proapoptotic protein (BAX) by 2.18 times. […] Furthermore, compound 16 enhanced the BAX/Bcl-2 ratio by 4.38-fold in comparison to control cells.
# The effects of compound 16 on the expression of BAX, and Bcl‐2 were determined using Western blot analysis [62–64]as described in Electronic Supplementary Material S2.7 in S1 Appendix. […]
# for 48 h. Then, the cells were fixed in 70% ethanol at 4 °C for 12 h. After that, the cells were washed with cold PBS, incubated with 100 μl RNase A at 37 °C for 30 min, and stained with 400 μl PI in the dark at room temperature for further 30 min. The stained cells were measured using Epics XL-MCL™ Flow Cytometer (Beckman Coulter), and the data were analyzed using Flowing software (version 2.5.1, Turku Centre for Biotechnology, Turku, Finland).
# S2.6. Flow cytometry analysis for apoptosis
# Flow cytometry cell apoptosis analysis was used to investigate the apoptotic effect of the synthesized compounds. […] The stained cells were measured using Epics XL-MCL™ Flow Cytometer and analyzed using Flowing software. […]
# The proteins expression of BAX, and Bcl‐2 were determined using Western blot analysis. […] Total protein concentrations in the supernatant were determined colorimetrically using the Pierce 660 nm Protein Assay method (Thermo Fisher Scientific, Rockford, IL), with BSA as the standard. […]
# T1 sequence (P11388 whole entry): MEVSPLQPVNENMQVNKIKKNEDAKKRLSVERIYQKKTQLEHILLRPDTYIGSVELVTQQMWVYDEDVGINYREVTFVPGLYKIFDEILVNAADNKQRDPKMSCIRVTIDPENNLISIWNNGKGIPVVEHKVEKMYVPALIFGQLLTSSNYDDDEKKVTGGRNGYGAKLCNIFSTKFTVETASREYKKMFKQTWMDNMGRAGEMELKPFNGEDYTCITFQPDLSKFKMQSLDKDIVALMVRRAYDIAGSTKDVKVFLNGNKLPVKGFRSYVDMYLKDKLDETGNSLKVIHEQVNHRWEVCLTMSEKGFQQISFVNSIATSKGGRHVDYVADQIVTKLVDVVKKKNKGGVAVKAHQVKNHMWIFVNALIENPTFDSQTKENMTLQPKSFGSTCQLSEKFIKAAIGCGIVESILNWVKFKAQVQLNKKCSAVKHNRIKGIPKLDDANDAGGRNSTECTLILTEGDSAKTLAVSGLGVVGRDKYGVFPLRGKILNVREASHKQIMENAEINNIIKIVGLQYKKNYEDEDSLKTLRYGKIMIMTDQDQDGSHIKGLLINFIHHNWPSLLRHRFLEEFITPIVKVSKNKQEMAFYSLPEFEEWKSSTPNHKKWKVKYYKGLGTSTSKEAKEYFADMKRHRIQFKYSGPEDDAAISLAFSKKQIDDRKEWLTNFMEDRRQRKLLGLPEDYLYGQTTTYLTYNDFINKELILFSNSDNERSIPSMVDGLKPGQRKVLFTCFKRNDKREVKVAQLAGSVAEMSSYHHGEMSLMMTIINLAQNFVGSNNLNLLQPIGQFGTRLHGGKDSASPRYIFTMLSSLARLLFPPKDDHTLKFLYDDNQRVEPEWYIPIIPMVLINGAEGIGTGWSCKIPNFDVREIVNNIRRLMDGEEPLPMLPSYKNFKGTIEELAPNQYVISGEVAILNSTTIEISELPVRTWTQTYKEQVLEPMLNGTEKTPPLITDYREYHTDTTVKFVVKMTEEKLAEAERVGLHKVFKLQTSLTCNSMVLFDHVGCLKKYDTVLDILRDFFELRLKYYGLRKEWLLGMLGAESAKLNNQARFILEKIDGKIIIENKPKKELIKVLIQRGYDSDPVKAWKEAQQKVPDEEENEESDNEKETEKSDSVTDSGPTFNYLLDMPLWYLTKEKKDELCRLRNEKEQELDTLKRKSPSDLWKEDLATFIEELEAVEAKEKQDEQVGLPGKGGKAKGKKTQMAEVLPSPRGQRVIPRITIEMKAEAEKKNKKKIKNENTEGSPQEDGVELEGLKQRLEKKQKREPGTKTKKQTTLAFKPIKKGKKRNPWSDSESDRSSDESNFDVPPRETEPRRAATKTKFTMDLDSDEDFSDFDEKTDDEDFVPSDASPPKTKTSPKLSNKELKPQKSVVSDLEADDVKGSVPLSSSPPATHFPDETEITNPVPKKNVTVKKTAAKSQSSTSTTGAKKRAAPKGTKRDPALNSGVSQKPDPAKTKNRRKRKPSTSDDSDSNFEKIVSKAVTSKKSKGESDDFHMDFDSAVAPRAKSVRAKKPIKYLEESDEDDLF
smiles,measurement,setting,value
"CCCNc1nc2ccccc2c2nnc(C(F)(F)F)n12 [Compound 16, N-Propyl-3-(trifluoromethyl)-[1,2,4]triazolo[4,3-c]quinazolin-5-amine]",IC50,[1],15.2 ± 0.9 µM
same,IC50,"Vero cells; Chlorocebus sabaeus, Vero",63.4 µM
same,Selectivity: activity against HCT-116 compared with normal Vero cells,Vero cells; Vero vs HCT-116,26 fold
same,Selectivity: activity against HepG2 compared with normal Vero cells,Vero cells; Vero vs HepG2,10 fold
same,Toxicity to Vero cells less than that of sorafenib,Vero cells; compared with sorafenib,about 2.5 fold
same,Protein expression (normalized to β-actin) BAX,BAX,2.18 ± 0.12
